# Reference: patent US7223751B2, “Sulfonamide derivatives, intermediate thereof, its preparation methods, and pharmaceutical composition comprising the same” (Kolon Ind. Inc., priority 2001, dated 2007)
# Legend:
# [1] = molecular target: MMP-14 (Homo sapiens, UniProt P50281); assay: MMP inhibiting activity, fluorescence assay; format: biochemical; details: read-out: Enzyme inhibiting constant IC50 MMP-14
# Experimental: (§1) Inhibitory activities of all the enzymes were measured similarly to the MMP-2 activity measuring method shown below. Prior to measuring, proMMP-2 was treated with 1 mM p-aminophenyl mercuricacetate at 37° C. for 45 minutes to activate it. The ProMMP-9 was activated to an enzyme with MMP-3, and stored at −80° C. until used.
# (§2) MMP activities were measured by fluorescence assay by changing a microtiter plate formate according to the reported method (Knight, C. G., Willenbrock, F., Murphy, G. A., FEBS Lett. 1992, 296, 263-266). On a dynatech MicroFLUOR plate, a buffer solution comprising 50 Mm Tris-HCl pH 7.5, 10 mM CaCl2, 0.15 M NaCl, 0.05% Brij, and 1-8 μM of a substrate (Mca-Pro-Leu-Gly-Leu-Dpa-Ala-Arg-NH2), and various concentrations of inhibitors were introduced, and it was reacted with activated enzymes at 37° C. for 20-30 minutes. Reaction was terminated by putting the reactant in 50 mM EDTA, and then fluorescence was measured with a spectrofluorometer attached to a microplate reader (λex 328 nm, λ em 393 nm). The inhibiting activity degree was indicated by an IC50 value, which is a concentration inhibiting activity by 50% compared to the control.
# [2] = molecular target: T1, MMP-2 (Homo sapiens, UniProt P08253); assay: MMP inhibiting activity, fluorescence assay; format: biochemical; details: read-out: Enzyme inhibiting constant IC50 MMP-2
# T1 sequence (P08253 110-660): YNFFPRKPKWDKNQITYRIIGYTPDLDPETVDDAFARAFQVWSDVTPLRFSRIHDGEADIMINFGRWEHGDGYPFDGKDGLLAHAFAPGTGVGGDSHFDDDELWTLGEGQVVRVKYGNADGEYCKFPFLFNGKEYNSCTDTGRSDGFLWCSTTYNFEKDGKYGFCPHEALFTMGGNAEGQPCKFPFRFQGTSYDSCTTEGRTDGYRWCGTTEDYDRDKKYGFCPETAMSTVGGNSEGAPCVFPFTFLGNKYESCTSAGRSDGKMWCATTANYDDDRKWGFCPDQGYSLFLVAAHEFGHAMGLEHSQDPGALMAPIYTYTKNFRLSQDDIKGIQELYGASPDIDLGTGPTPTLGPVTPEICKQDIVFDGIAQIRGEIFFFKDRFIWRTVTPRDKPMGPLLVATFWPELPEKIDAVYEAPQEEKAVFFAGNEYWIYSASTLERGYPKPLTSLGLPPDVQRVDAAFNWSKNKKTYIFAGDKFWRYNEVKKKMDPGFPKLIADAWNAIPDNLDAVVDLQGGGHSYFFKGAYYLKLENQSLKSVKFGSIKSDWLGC
# Experimental: as §1, §2
# [3] = molecular target: MMP-9 (Homo sapiens, UniProt P14780); assay: MMP inhibiting activity, fluorescence assay; format: biochemical; details: read-out: Enzyme inhibiting constant IC50 MMP-9
# MMP-9, sequence (P14780 107-707 limits assumed, species assumed): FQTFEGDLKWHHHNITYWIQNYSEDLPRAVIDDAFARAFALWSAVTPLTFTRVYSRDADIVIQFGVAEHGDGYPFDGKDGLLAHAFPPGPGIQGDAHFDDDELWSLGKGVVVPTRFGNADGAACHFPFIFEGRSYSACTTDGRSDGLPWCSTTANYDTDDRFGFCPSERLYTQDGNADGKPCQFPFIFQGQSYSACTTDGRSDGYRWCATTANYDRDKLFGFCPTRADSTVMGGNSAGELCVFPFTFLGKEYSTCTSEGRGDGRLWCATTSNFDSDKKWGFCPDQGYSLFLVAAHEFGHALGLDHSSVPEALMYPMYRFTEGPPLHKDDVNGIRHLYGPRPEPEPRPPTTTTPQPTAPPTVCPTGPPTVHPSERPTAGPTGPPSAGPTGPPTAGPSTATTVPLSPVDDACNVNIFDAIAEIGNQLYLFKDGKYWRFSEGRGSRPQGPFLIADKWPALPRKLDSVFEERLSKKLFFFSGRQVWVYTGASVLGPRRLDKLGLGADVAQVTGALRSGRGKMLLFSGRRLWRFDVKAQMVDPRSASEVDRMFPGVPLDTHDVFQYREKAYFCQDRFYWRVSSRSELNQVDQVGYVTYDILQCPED
# Experimental: as §1, §2
# [4] = tested on: HUVEC (human umbilical vein endothelial cell) cells; assay: Tube formation activity on matrigel; format: cell-based; design: key: −: control; ±: tube almost resembles control; +: inhibition; ++: significant inhibition; +++: complete inhibition; details: 16-24 hours
# Experimental: In a culture flask previously coated with gelatin, HUVEC (human umbilical vein endothelial cell) cells cultured with a M199 medium (containing 20% FBS, 3 ng/ml bFGF, 100 μg/ml heparin) were treated with trypsin/EDTA, and then number of cells are counted so that number of cells may be 2×10^4 cells/well in a 96-well plate previously coated with matrigel. Samples were then added and cultured in a CO2 culture medium at 37° C. for 16-24 hours.
# [5] = molecular target: T2, MMP-1 (Homo sapiens, UniProt P03956); assay: MMP inhibiting activity, fluorescence assay; format: biochemical; details: read-out: Enzyme inhibiting constant IC50 MMP-1
# T2 sequence (P03956 100-469): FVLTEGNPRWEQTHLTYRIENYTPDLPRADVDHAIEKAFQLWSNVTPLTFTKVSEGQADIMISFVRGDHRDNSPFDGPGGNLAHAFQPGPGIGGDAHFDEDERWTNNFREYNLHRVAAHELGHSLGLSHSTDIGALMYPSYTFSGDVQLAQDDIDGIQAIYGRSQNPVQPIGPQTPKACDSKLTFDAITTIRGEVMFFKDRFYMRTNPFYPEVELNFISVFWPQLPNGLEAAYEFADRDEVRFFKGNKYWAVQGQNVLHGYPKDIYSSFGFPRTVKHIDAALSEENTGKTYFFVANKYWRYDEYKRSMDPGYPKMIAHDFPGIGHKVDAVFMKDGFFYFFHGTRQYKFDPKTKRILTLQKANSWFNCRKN
# Experimental: as §1, §2
# [6] = molecular target: MMP-13 (Homo sapiens, UniProt P45452); assay: MMP inhibiting activity, fluorescence assay; format: biochemical; details: read-out: Enzyme inhibiting constant IC50 MMP-13
# Experimental: as §1, §2
Compound,IC50 [1] [nM],IC50 [2] [nM],IC50 [3] [nM],Tube Formation ([4]; concentration 5 μM),Tube Formation ([4]; concentration 50 μM),Tube Formation ([4]; concentration 100 μM),IC50 [5] [nM],IC50 [6] [nM],Tube Formation ([4]; concentration 0.5 μM)
"COc1ccc(S(=O)(=O)N2CC(=O)NCC2C(=O)NO)cc1 (stereo not drawn) [Example 5, 1-(4-Methoxy-benzenesulfonyl)-5-oxo-piperazine-2-hydroxamate]",28,4,12.4,±,+,++,,,
4-Benzyl-1-(4-methoxy-benzenesulfonyl)-5-oxo-piperazine-2-hydroxamate [Example 7],36,7,25,±,+,,52,18,
"CCCCCCCCN1CC(C(=O)O)N(S(=O)(=O)c2ccc(NC(=O)c3ccc(Cl)cc3)cc2)CC1=O (stereo not drawn) [Example 60, 1-[4-(4-chloro-benzoylamino)-benzenesulfonyl]-4-octyl-5-oxo-piperazine-2-carboxylic acid]",,3,3.2,++,++,,18,24,+
"CCCCCCCCN1CC(C(=O)NO)N(S(=O)(=O)c2ccc(-c3ccc(Br)cc3)cc2)CC1=O (stereo not drawn) [Example 32, 1-(4′-Bromo-biphenyl-4-sulfonyl)-4-octyl-5-oxo-piperazine-2-hydroxamate]",,2,1.3,++,+++,+++,16,7,
